Data set [1] in a line: Permeability of compound in BBB assay. It counts as ADME.
Data set [2] can be described thus: Plasma concentration in Sprague-Dawley rat at 5 mg/kg, iv measured upto 120 mins by LC-MS/MS analysis. The format is ADME, organism-based.
The species named for data set [3] is Mus musculus. The data set is described as follows: Binding affinity to alpha-syn PFF in acute C57BL/6 mouse brain striatum measured after 1 hrs by immunofluorescence confocal microscopic analysis. It counts as tissue-based.
Data set [4] is described as follows: Brain concentration in Sprague-Dawley rat at 5 mg/kg, iv measured upto 120 mins by LC-MS/MS analysis. The format is ADME, organism-based. The note with it: read-out: Ct.
Data set [5] in a line: Ratio of drug concentration in Sprague-Dawley rat brain to plasma at 5 mg/kg, iv measured upto 120 mins by LC-MS/MS analysis. The format is ADME, organism-based. The note with it: read-out: BPR.
The species entered for data set [6] is Mus musculus. The data set is described as follows: Binding affinity to alpha-syn PFF in chronic C57BL/6 mouse brain straitum measured for 1 hrs by immunofluorescence confocal microscopic analysis. It counts as tissue-based. The note with it: Striatum.
The next data set concerns the target Alpha-synuclein (Homo sapiens, UniProt P37840). The data set is described as follows: Binding affinity to recombinant human alpha-syn aggregates assessed as dissociation constant by SPR analysis. (In general: In SPR one partner is held on a chip, and binding of the other changes the refractive index at the surface.)
The species named for data set [7] is Mus musculus. The data set is described as follows: Binding affinity to alpha-syn PFF in chronic C57BL/6 mouse M2 motor cortex measured for 1 hrs by immunofluorescence confocal microscopic analysis. It counts as tissue-based.

From ChEMBL document CHEMBL5038614, “Discovery of styrylaniline derivatives as novel alpha-synuclein aggregates ligands” (Eur J Med Chem, 2021) come the findings set out here.

The Kd is the constant that tells how readily two partners part at equilibrium.

Calls of active or inactive are those of the source. No cut-off for these calls is given here.

`CN(C)c1ccc(/C=C/c2ccccc2NC(=O)c2ccccn2)cc1` registered a pBBB in data set [1] of more than 0.3. Moreover, the concentration at 2 h amounted to 6.06 µM in data set [2] and 15.9 µM in data set [4]. In the data set filed under Mus musculus [3], the result was inactive. For the same molecule, the Kp at 2 h in data set [5] is 2.62. The result in the data set listed under Mus musculus [6] was Active.
In the case of `O=C(Nc1ccccc1/C=C/c1ccc([N+](=O)[O-])cc1)c1cccnn1`, the equilibrium dissociation constant (Kd) at Alpha-synuclein is more than 10 µM.
On to `O=C(Nc1ccccc1/C=C/c1ccc([N+](=O)[O-])cc1)c1ccccn1`, for which the pBBB in data set [1] is more than 0.3. For the same molecule, the concentration at 2 h was found to be 38.5 µM in data set [2] and 46.8 µM in data set [4]. For the same molecule, the result in the data set listed under Mus musculus [3], in the data set listed under Mus musculus [7] and in the data set filed under Mus musculus [6] was Active. Moreover, the Kp at 2 h in data set [5] stood at 1.21.
With `COc1ccc(/C=C/c2ccccc2NC(=O)NCc2cnccn2)cc1`, at Alpha-synuclein, the Kd was more than 10 µM.
Same read-out and setting: the result for `O=C(Nc1ccc(/C=C/c2ccc(F)cc2)cc1)c1ccccc1` reads more than 10 µM; that for `COc1ccc(/C=C/c2ccccc2NC(=O)c2cccs2)cc1`, more than 10 µM; that for `O=C(Nc1ccccc1/C=C/c1ccc(F)cc1)c1cccnn1`, more than 10 µM.
Regarding `COc1ccc(/C=C/c2ccc(NC(=O)c3ccccc3)cc2)cc1`, the Kd at Alpha-synuclein is more than 10 µM.
With `COc1ccc(/C=C/c2ccccc2NC(=O)c2cccnn2)cc1`, the Kd at Alpha-synuclein is more than 10 µM.
The same measure, in the same setting: with `COc1ccc(/C=C/c2ccccc2NC(=O)c2cccnc2)cc1` the figure was more than 10 µM.
